Assay [1] deals with A. thaliana. The experiment in a line: Root growth (primary root) of plants on high phosphate medium supplied with compound. Type of assay: in vivo. The settings on record: expressed as a percentage having regard to a control; +P control 100, −P 20. The source says:
In response to phosphate starvation, the primary root growth is inhibited (Svistoonoff et al., 2007).

For assay [2], the system named is phosphate transporter PHT1;4. Put plainly: 8′G::GUS, follow-up of the expression of the phosphate transporter PHT1;4 (GUS staining). It counts as in vivo, A. thaliana. The settings on record: compound added to the cultivation medium. The source says: 8′G cell line was obtained as follows: for the PHT1;4 promoter fusion, a 2 kb region upstream of the ORF of PHT1;4 was cloned in the vector pENTR/D-TOPO (pENTRT™/D-TOPO® Cloning Kit, ref. K2400-20, Invitrogen) and transferred to pKGWFS7 (Karimi et al., 2002) by recombination using Gateway BP (Gateway® BP Clonase® enzyme mix, ref. 11789-013, Invitrogen) and LR Clonase enzyme mixes (LR Clonase® II Plus enzyme, ref. 12538-120, Invitrogen), respectively, to produce the pPHT1;4:GUS-GFP gene fusion. This fusion was then introduced into the Arabidopsis genome via the Agrobacterium-mediated transformation system (Logemann et al., 2006).
Plants were examined for GUS activity by dipping the samples in a GUS staining solution (50 mM sodium phosphate buffer pH 7.0; 0.01% Triton X-100, 1 mM K3Fe(CN)6, 1 mM K4Fe(CN)6, 1 mg/ml 5-dromo-4-chloro-3-indolyl (3-D-GLUCURONIDE (X-Gluc A) and incubated at 37° C. over-night. After staining, the plants were fixed 2 hours in 50 mM sodium phosphate buffer pH 7.0; 1% glutaraldehyde; 4% formaldehyde.

The test system of assay [3] is phopholipase Dz2. The experiment in a line: PLDz::GUS, follow-up of the expression of the gene encoding phospholipase Dz2 (GUS staining). It counts as in vivo, A. thaliana. The settings on record: high phosphate medium + MC2 5 μM, FIG. 10. As to the method: (§1) pPLDZ2:GUS-GFP cell line is as described by Cruz-Ramirez et al. (Cruz-Ramirez et al., 2006), and expressed a GUS-GFP fusion under the control of the pldz2 promoter. […] Plants were examined for GUS activity by dipping the samples in a GUS staining solution (50 mM sodium phosphate buffer pH 7.0; 0.01% Triton X-100, 1 mM K3Fe(CN)6, 1 mM K4Fe(CN)6, 1 mg/ml 5-dromo-4-chloro-3-indolyl (3-D-GLUCURONIDE (X-Gluc A) and incubated at 37° C. over-night. After staining, the plants were fixed 2 hours in 50 mM sodium phosphate buffer pH 7.0; 1% glutaraldehyde; 4% formaldehyde. In response to phosphate starvation, the lipid metabolism is modified (Benning and Ohta, 2005). Plants preferentially synthesize sulpho- and galacto-lipids instead of phospholipids. Several enzymes are involved in this remobilisation.

Assay [4] concerns enzyme MGD3. The experiment in a line: MGD3::GUS, follow-up of the expression of the gene encoding the enzyme MGD3 (GUS staining). Type of assay: in vivo, A. thaliana. The conditions noted are these: high phosphate medium + MC2 5 μM, FIG. 9. Here is the method:
as §1, with “pMGD3:GUS cells are” for “pPLDZ2:GUS-GFP cell line is”, “Kobayashi” for “Cruz-Ramirez”, “(Kobayashi” for “(Cruz-Ramirez”, “2004). In these cells, the GUS reporter is” for “2006), and”, “expressed” for “expressed a GUS-GFP fusion”, “mgd3” for “pldz2”

The test system of assay [5] is Cyclin B1. The experiment in a line: CycB1::GUS, follow-up of the expression of the gene encoding Cyclin B1 (meristematic activity marker). Type of assay: in vivo, A. thaliana. The settings on record: high phosphate medium + MC2 5 μM, FIG. 6. The text has this: pCycB1;1:GUS cell line is as described by Colón-Carmona et al. (Colon-Carmona et al., 1999), and expresses the GUS reporter under the control of the promoter of the cyclin B1 gene. […] In response to phosphate deficiency, CycB1 is less expressed. Suprisingly, in response to MC2, the meristematic activity is not reduced (FIG. 6). Thus, it can be concludes that the primary root growth inhibition observed in response to the molecule is not due to inhibition of the meristematic activity.

Assay [6] has as its system wild type seedlings. Put plainly: Anthocyanins content (spectrophotometric). Type of assay: in vivo, A. thaliana. Also noted: key to Antho: anthocyanin content as A530 - 2.2*A652. As to the method: Anthocyanins were extracted with propanol:HCl:H2O (81:1:18) for 5 min at room temperature and 3 min at 100° C. Samples are centrifuged for 10 min at 4° C. Supernatants were collected and absorption measured at 530 nm and […]. Anthocyanin content was calculated as A530-2.2A652 (Lange et al., 1971).

The test system of assay [7] is wild-type seedlings. Put plainly: Free cellular Pi content (malachite green method). Type of assay: in vivo, A. thaliana. The settings on record: high phosphate medium + MC2 5 μM vs control condition, FIG. 3. As to the method: Three replicates were performed for each experiment. After 5 min of centrifugation, the supernatant was recovered. Phosphate content was measured using the malachite green method as described (Delhaize and Randall, 1995). One hundred and fifty microliters of molybdate solution (17.55 g/l (NH4)6Mo7, 4H2O, 2M H2SO4) were added to the sample (50 μl) diluted in water (700 μl). Ten minutes later, 150 μl of green malachite solution (3.5 g/l polyvinylic alcohol, 0.35 g/l malachite green) were then added. Measurements were carried out at 610 nm after 2 h. Concentrations were calculated using a calibration curve (performed with aKH2PO4 solution) and expressed per fresh weight. To evaluate if this expression interferes with phosphate content, phosphate content was analyzed in different conditions: high phosphate medium (+Pi), low phosphate medium (−Pi) and high phosphate medium+MC2, 5 μM (+Pi, +MC2 5 μM). […] This phosphate accumulation can be easily explained by the overexpression of the phosphate transporter.

For assay [8], the system named is ferritin. The experiment in a line: Western blot of plant ferritin on leaf protein extracts. The conditions noted are these: leaves, high phosphate medium + MC2 5 μM, FIG. 12. Type of assay: in vivo. The source says: After SDS-PAGE in a 12% acrylamide gel and transfer onto a nitrocellulose membrane, ferritin was immunodetected with a primary rabbit polyclonal antibody against AtFER1 and a secondary goat antirabbit antibody conjugated with alkaline phosphatase.
From previous study in the lab, it is known that in response to phosphate starvation, iron is accumulated in cells inducing ferritin accumulation (Hirsch et al., 2006). To determine MC2 effect on iron metabolism, the iron content was quantified by ICP-OES (FIG. 11), accumulation of ferritin was analyzed by Western Blot (FIG. 12) and finally IRT1 gene expression was analyzed, since this gene encodes an iron transporter (FIG. 12).
(In general: A western blot detects proteins with antibodies after separation by electrophoresis.)

Consider `Cc1cccc(NC=C2C(=O)CC(C)(C)CC2=O)n1` [MC2], for which the “Root Growth” value in assay [1] was 51 % of control. The “PHT1;4 expression (in words, summary of analogues)” value in assay [2] was “induce expression of the Pht1;4 gene”. Further, the “PLDζ2 expression (in words)” value in assay [3] is listed as “strongly expressed”. Moreover, the “MGD3 expression (in words)” value in assay [4] is given as “strongly expressed”. Besides, the “meristematic activity (CycB1 expression, in words)” value in assay [5] is on record as “not reduced”. Besides, in assay [6] (MC2 5 μM, FIG. 8), the “anthocyanins accumulation (in words)” value is given as “strong accumulation”. The Antho in assay [6] (accumulation of anthocyanes, +P control 46, −P 1008) was determined as 454. In assay [7], the “phosphate accumulation in leaves” value is reported as “two times more” and the “phosphate accumulation in roots” value is reported as “two times more”. In addition, the “ferritin accumulation (Western blot)” value in assay [8] is recorded as “not in response to MC2 treatment”.

For the origin of these results see patent publication US9028855B2, “Plant additives and uses thereof to modulate the synthesis of membrane glycerolipids in planta” (Commissariat a l'Energie Atomique et aux Energies …, priority 2009, dated 2015).
